According to US11155561B2, “Substituted glutarimides as Btk inhibitors” (SHANGHAI MEIZER PHARMACEUTICALS CO., LTD., priority 2017, dated 2021):

tested on: DOHH2 cells (human B cell lymphoma cells); test: Inhibition of proliferation of DOHH2 cells by CTG assay; assay type: cell-based; details: DOHH-2, compound 10 μM, 72 hours
Description: (§1) Example 8 Testing the Inhibitory Effect of Formula Compounds on the Proliferation of DOHH2 Cells (Human B Cell Lymphoma Cells) and SU-DHL-6 (Human B Cell Lymphoma Cells) by CTG Assay
(§2) The […] was used to determine the inhibitory effect of the compounds on the proliferation of DOHH2 cells (available from ATCC) and SU-DHL-6 cells (available from ATCC) in vitro. Cells were cultured and compounds were prepared referring to Example 7. The cell plating density was 1×10^4 cells/well for DOHH2 cells, and 1.5×10^4 cells/well for SU-DHL-6 cells. The culture time after the administration was 72 hours. After that an appropriate amount of CTG reagent was added, the luminescence value was measured, and the inhibition rate was calculated.

SMILES | inhibition at 10 µM [%]
Nc1ncnc2c1c(-c1ccc(Oc3ccccc3)cc1)nn2C1CCCN(CCOCCOCCOCCNc2cccc3c2C(=O)N(C2CCC(=O)NC2=O)C3=O)C1 (stereo not drawn) [Compound 15] | 99

tested on: SU-DHL-6 (human B cell lymphoma cells); test: Inhibition of proliferation of SU-DHL-6 cells by CTG assay; assay type: cell-based; details: compound 10 μM, 72 hours
Description: as §1, §2

SMILES | inhibition at 10 µM [%]
Nc1ncnc2c1c(-c1ccc(Oc3ccccc3)cc1)nn2C1CCCN(CCOCCOCCOCCNc2cccc3c2C(=O)N(C2CCC(=O)NC2=O)C3=O)C1 (stereo not drawn) [Compound 15] | 94

target: T1, Btk (Homo sapiens, UniProt Q06187); test: Inhibition activity of compounds on Btk by Caliper assay; assay type: biochemical; details: compound 100 nM, Btk kinase
T1 sequence (Q06187 whole entry): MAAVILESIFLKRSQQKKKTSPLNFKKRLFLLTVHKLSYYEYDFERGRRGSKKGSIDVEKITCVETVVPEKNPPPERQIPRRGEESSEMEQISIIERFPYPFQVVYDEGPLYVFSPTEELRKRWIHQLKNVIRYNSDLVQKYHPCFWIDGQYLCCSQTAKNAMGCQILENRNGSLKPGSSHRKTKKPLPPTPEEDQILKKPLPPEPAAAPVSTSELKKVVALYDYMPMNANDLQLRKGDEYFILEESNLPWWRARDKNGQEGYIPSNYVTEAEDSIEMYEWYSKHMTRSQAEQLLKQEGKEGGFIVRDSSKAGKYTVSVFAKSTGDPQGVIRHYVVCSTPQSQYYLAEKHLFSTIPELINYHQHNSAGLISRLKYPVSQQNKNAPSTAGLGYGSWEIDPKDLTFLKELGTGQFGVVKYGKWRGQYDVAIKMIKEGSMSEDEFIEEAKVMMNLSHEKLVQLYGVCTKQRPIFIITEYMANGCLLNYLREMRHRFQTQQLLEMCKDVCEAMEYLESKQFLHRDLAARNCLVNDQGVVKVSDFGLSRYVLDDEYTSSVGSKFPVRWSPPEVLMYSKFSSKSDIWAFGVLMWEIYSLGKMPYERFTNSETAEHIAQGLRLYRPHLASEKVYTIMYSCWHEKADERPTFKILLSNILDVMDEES
Description: Example 5 Testing the Inhibition Activity of Compounds on Btk by Caliper Assay
The experimental steps were as follows:
Preparation of 1× kinase reaction buffer (50 mM HEPES, PH 7.5; 0.0015% Brij-35) and kinase reaction termination solution (100 mM HEPES, PH 7.5; 0.0015% Brij-35; 0.2% Coating Reagent; 50 mM EDTA);
Preparation of experimental samples: 100 μL of 5 μM sample solution (dissolved in 100% DMSO) was added to a 96-well plate to obtain a 50× sample solution. As a control, two wells were set containing only 100 μL of 100% DMSO on the same plate. One was served as a control without samples and the other was served as a control without enzymes. 10 μL of sample and 90 μL of 1× kinase reaction buffer were added to a 96-well plate as a transfer plate. The transfer plate was shaken for 10 minutes.
Preparation of the test plate: taking 5 μL each of the prepared samples in the 96-well transfer plate into a 384-well plate.
Kinase reaction: to 5 μL of 5× compound solution (dissolved in DMSO, diluted 10 times with water) was added 10 μL of 2.5× Btk kinase solution (kinase was diluted with 1× kinase reaction buffer), and incubated at room temperature for 10 min, then 10 μL of 2.5× substrate peptide solution (FAM-labeled peptide and ATP were diluted with 1× kinase reaction buffer) was added.
Termination of the kinase reaction: 25 μL of kinase termination solution was added after being reacted at 28° C. for a period of time.
The fluorescence (F) was tested on a Caliper and data was collected.
The inhibition rate of kinase activity was calculated: the percent inhibition rate of kinase activity=(FDMSO control−Fsample)/(FDMSO control−Fnegative control)×100, with DMSO as the solution control, and no kinase as the negative control.

inhibition at 0.1 µM [%] | SMILES
98 | Nc1ncnc2c1c(-c1ccc(Oc3ccccc3)cc1)nn2C1CCCN(CCOCCOCCOCCNc2cccc3c2C(=O)N(C2CCC(=O)NC2=O)C3=O)C1 (stereo not drawn) [Compound 15]

target: T1, Btk; test: Btk protein degradation activity by Western blot in RPMI8226 cells; assay type: cell-based; parameters: degradation activity of the compound (10 μM) on Btk protein in RPMI8226 cells; endogenous in cells; host or cells: RPMI8226; key: “−” represents no degradation activity; “+” represents a degradation rate of 10%-30%; “++” represents a degradation rate of 30%-50%; “+++” represents a degradation rate of 50%-90%; “++++” means the degradation rate is greater than 90%; details: compound 10 μM, 24 hours
Description: Example 6 Testing the Btk Protein Degradation Activity of Compounds by Western Blot
Cell lines: RPMI8226 Cell line was cultured in RPMI1640 medium containing 10% calf serum in a 37° C., 5% CO2, and saturated humidity incubator.
DMSO control group and compound intervention group (10 μM) were set. Cells was collected after the treatment for 24 hours, then 100 μL of pre-chilled cell lysate was added and cells were lysed on ice for 30 minutes. Total cell protein was extracted, and protein concentration was determined and quantified by […] (BCA) method. After routine gelatinization, loading, electrophoresis, then transferring to membrane and blocking, rabbit anti-human Btk (1:500) was added, and incubated at 4° C. overnight. The mixture was rinsed and then horseradish peroxidase labeled goat anti-rabbit IgG (1:5000) was added. After the rinsing it was developed by the ECL developing solution, the Bio-Rad gel imaging system was used for scanning and imaging, and the computer software was used for analysis. […] (GAPDH) was used as an internal control.
Image J software was used to analyze the gray scale of each band to calculate the Btk protein degradation rate of the compound.

SMILES | Degradation activity
Nc1ncnc2c1c(-c1ccc(Oc3ccccc3)cc1)nn2C1CCCN(CCOCCOCCOCCNc2cccc3c2C(=O)N(C2CCC(=O)NC2=O)C3=O)C1 (stereo not drawn) [Compound 15] | ++++ (“++++” means the degradation rate is greater than 90%)
Nc1ncnc2c1c(-c1ccc(Oc3ccccc3)cc1)nn2C1CCCN(C(=O)/C=C/CCOCCOCCOc2cccc3c2C(=O)N(C2CCC(=O)NC2=O)C3=O)C1 (stereo not drawn) [Compound 17] | +++ (“+++” represents a degradation rate of 50%-90%)
Nc1ncnc2c1c(-c1ccc(Oc3ccccc3)cc1)nn2C1CCCN(C(=O)/C=C/CCOCCOCCOCCOc2cccc3c2C(=O)N(C2CCC(=O)NC2=O)C3=O)C1 (stereo not drawn) [Compound 18] | +++ (“+++” represents a degradation rate of 50%-90%)
Nc1ncnc2c1c(-c1ccc(Oc3ccccc3)cc1)nn2C1CCCN(C(=O)/C=C/CCCOCCOCCOCCOc2cccc3c2C(=O)N(C2CCC(=O)NC2=O)C3=O)C1 (stereo not drawn) [Compound 19] | +++ (“+++” represents a degradation rate of 50%-90%)
Nc1ncnc2c1c(-c1ccc(Oc3ccccc3)cc1)nn2C1CCCN(C(=O)/C=C/CCCCOCCOCCOCCOc2cccc3c2C(=O)N(C2CCC(=O)NC2=O)C3=O)C1 (stereo not drawn) [Compound 20] | +++ (“+++” represents a degradation rate of 50%-90%)
Nc1ncnc2c1c(-c1ccc(Oc3ccccc3)cc1)nn2C1CCCN(C(=O)/C=C/COCCOCCOCCOCCOc2cccc3c2C(=O)N(C2CCC(=O)NC2=O)C3=O)C1 (stereo not drawn) [Compound 21] | +++ (“+++” represents a degradation rate of 50%-90%)
Nc1ncnc2c1c(-c1ccc(Oc3ccccc3)cc1)nn2C1CCCN(C(=O)/C=C/CCOCCOCCOCCOCCOc2cccc3c2C(=O)N(C2CCC(=O)NC2=O)C3=O)C1 (stereo not drawn) [Compound 22] | +++ (“+++” represents a degradation rate of 50%-90%)
Nc1ncnc2c1c(-c1ccc(Oc3ccccc3)cc1)nn2C1CCCN(C(=O)/C=C/CCOCCOCCNc2cccc3c2C(=O)N(C2CCC(=O)NC2=O)C3=O)C1 (stereo not drawn) [Compound 23] | ++++ (“++++” means the degradation rate is greater than 90%)
Nc1ncnc2c1c(-c1ccc(Oc3ccccc3)cc1)nn2C1CCCN(C(=O)/C=C/CCOCCOCCOCCNc2cccc3c2C(=O)N(C2CCC(=O)NC2=O)C3=O)C1 (stereo not drawn) [Compound 24] | ++++ (“++++” means the degradation rate is greater than 90%)
Nc1ncnc2c1c(-c1ccc(Oc3ccccc3)cc1)nn2C1CCCN(C(=O)/C=C/CCCOCCOCCOCCNc2cccc3c2C(=O)N(C2CCC(=O)NC2=O)C3=O)C1 (stereo not drawn) [Compound 25] | ++++ (“++++” means the degradation rate is greater than 90%)
Nc1ncnc2c1c(-c1ccc(Oc3ccccc3)cc1)nn2C1CCCN(C(=O)/C=C/CCCCOCCOCCOCCNc2cccc3c2C(=O)N(C2CCC(=O)NC2=O)C3=O)C1 (stereo not drawn) [Compound 26] | ++++ (“++++” means the degradation rate is greater than 90%)
Nc1ncnc2c1c(-c1ccc(Oc3ccccc3)cc1)nn2C1CCCN(C(=O)/C=C/COCCOCCOCCOCCNc2cccc3c2C(=O)N(C2CCC(=O)NC2=O)C3=O)C1 (stereo not drawn) [Compound 27] | ++++ (“++++” means the degradation rate is greater than 90%)
Nc1ncnc2c1c(-c1ccc(Oc3ccccc3)cc1)nn2C1CCCN(C(=O)/C=C/CCOCCOCCOCCOCCNc2cccc3c2C(=O)N(C2CCC(=O)NC2=O)C3=O)C1 (stereo not drawn) [Compound 28] | +++ (“+++” represents a degradation rate of 50%-90%)
C=C(CCCOCCOCCOc1cccc2c1C(=O)N(C1CCC(=O)NC1=O)C2=O)C(=O)N1CCCC(n2nc(-c3ccc(Oc4ccccc4)cc3)c3c(N)ncnc32)C1 (stereo not drawn) [Compound 29] | ++++ (“++++” means the degradation rate is greater than 90%)
C=C(CCOCCOCCOc1cccc2c1C(=O)N(C1CCC(=O)NC1=O)C2=O)C(=O)N1CCCC(n2nc(-c3ccc(Oc4ccccc4)cc3)c3c(N)ncnc32)C1 (stereo not drawn) [Compound 30] | ++++ (“++++” means the degradation rate is greater than 90%)
C=C(CCOCCOCCOCCOc1cccc2c1C(=O)N(C1CCC(=O)NC1=O)C2=O)C(=O)N1CCCC(n2nc(-c3ccc(Oc4ccccc4)cc3)c3c(N)ncnc32)C1 (stereo not drawn) [Compound 31] | ++++ (“++++” means the degradation rate is greater than 90%)
C=C(CCOCCOCCOCCOCCOc1cccc2c1C(=O)N(C1CCC(=O)NC1=O)C2=O)C(=O)N1CCCC(n2nc(-c3ccc(Oc4ccccc4)cc3)c3c(N)ncnc32)C1 (stereo not drawn) [Compound 32] | +++ (“+++” represents a degradation rate of 50%-90%)
C=C(CCCOCCOCCNc1cccc2c1C(=O)N(C1CCC(=O)NC1=O)C2=O)C(=O)N1CCCC(n2nc(-c3ccc(Oc4ccccc4)cc3)c3c(N)ncnc32)C1 (stereo not drawn) [Compound 33] | ++++ (“++++” means the degradation rate is greater than 90%)
C=C(CCOCCOCCNc1cccc2c1C(=O)N(C1CCC(=O)NC1=O)C2=O)C(=O)N1CCCC(n2nc(-c3ccc(Oc4ccccc4)cc3)c3c(N)ncnc32)C1 (stereo not drawn) [Compound 34] | ++++ (“++++” means the degradation rate is greater than 90%)
C=C(CCOCCOCCOCCNc1cccc2c1C(=O)N(C1CCC(=O)NC1=O)C2=O)C(=O)N1CCCC(n2nc(-c3ccc(Oc4ccccc4)cc3)c3c(N)ncnc32)C1 (stereo not drawn) [Compound 35] | ++++ (“++++” means the degradation rate is greater than 90%)
C=C(CCOCCOCCOCCOCCNc1cccc2c1C(=O)N(C1CCC(=O)NC1=O)C2=O)C(=O)N1CCCC(n2nc(-c3ccc(Oc4ccccc4)cc3)c3c(N)ncnc32)C1 (stereo not drawn) [Compound 36] | +++ (“+++” represents a degradation rate of 50%-90%)
Nc1ncnc2c1c(-c1ccc(Oc3ccccc3)cc1)nn2C1CCCN(C(=O)c2cn(CCOCCOCCOc3cccc4c3C(=O)N(C3CCC(=O)NC3=O)C4=O)nn2)C1 (stereo not drawn) [Compound 37] | ++++ (“++++” means the degradation rate is greater than 90%)
Nc1ncnc2c1c(-c1ccc(Oc3ccccc3)cc1)nn2C1CCCN(C(=O)c2cn(CCOCCOCCOCCOc3cccc4c3C(=O)N(C3CCC(=O)NC3=O)C4=O)nn2)C1 (stereo not drawn) [Compound 39] | ++++ (“++++” means the degradation rate is greater than 90%)
Nc1ncnc2c1c(-c1ccc(Oc3ccccc3)cc1)nn2C1CCCN(C(=O)c2cn(CCOCCOCCOCCOCCOc3cccc4c3C(=O)N(C3CCC(=O)NC3=O)C4=O)nn2)C1 (stereo not drawn) [Compound 40] | +++ (“+++” represents a degradation rate of 50%-90%)
Nc1ncnc2c1c(-c1ccc(Oc3ccccc3)cc1)nn2C1CCCN(C(=O)c2cn(CCOCCOCCOCCNc3cccc4c3C(=O)N(C3CCC(=O)NC3=O)C4=O)nn2)C1 (stereo not drawn) [Compound 43] | ++++ (“++++” means the degradation rate is greater than 90%)
Nc1ncnc2c1c(-c1ccc(Oc3ccccc3)cc1)nn2C1CCCN(C(=O)c2cn(CCOCCOCCOCCOCCNc3cccc4c3C(=O)N(C3CCC(=O)NC3=O)C4=O)nn2)C1 (stereo not drawn) [Compound 44] | +++ (“+++” represents a degradation rate of 50%-90%)
Nc1ncnc2c1c(-c1ccc(Oc3ccccc3)cc1)nn2C1CCN(CCOCCOCCOCCOc2cccc3c2C(=O)N(C2CCC(=O)NC2=O)C3=O)CC1 (stereo not drawn) [control compound, reference compound] | −
